# Measured values published in patent US11878059B2, “Sonodynamic therapy” (UNIVERSITY OF ULSTER, priority 2017, dated 2024).
# What was measured:
# [1] = system: MCF-7 cells; assay: Colony forming assay in MCF-7 cells; assay type: cell-based, human; details: +US (1 MHz, 30 s, 3 Wcm^−2); PTX 1 nM, Dox 10 nM, RB 10 nM, 3 hours
# Description: FIG. 16 is a plot showing % survival fraction from a MCF-7 colony forming assay. Cells following treatment with PTX/Dox/RB alone (Drug combo) or following treatment with ultrasound (Drug Combo+US). After treatment cells were incubated for 8 days followed by fixation and staining. Crystal violet staining was quantified via Image J.
# In this study, the concentration of each individual drug used was intentionally sub-lethal, so that any benefit obtained by the combination treatment could easily be identified. In addition, as the action of ultrasound can influence the cellular uptake of drugs as a result of sonoporation, cells treated with Dox or PTX were also exposed to ultrasound, to control for any potential ultrasound mediated effects on cell viability as a result of sonoporation. Following treatment, cell viability was determined using a colony forming assay.
# MCF-7 cells were seeded (5×10^3) in a 96 well plate, 24 hours later cells were treated with free drug as a single treatment of PTX (1 nM), Dox (10 nM), RB (10 nM) or combination treatment for 3 hours followed by media replacement. Selected wells were treated with ultrasound delivered using a Sonidel SP100 sonoporator (1 MHz, 30 seconds, 3 Wcm^−2, duty cycle=50%, and PRF=100 Hz). The following day cells were pooled from 2 wells and seeded in a 6 well plate. Plates were placed in an incubator for 7 days. Media was removed from wells, fixation/staining solution was added at room temperature for 20 minutes. Fixative/staining solution contained: 0.5 g crystal violet (0.05%), 27 ml 37% formaldehyde, 100 ml 10×PBS (X1), 10 mL methanol (1%) and 863 mL of distilled water. Solution was removed and washed under running water. Pictures were taking using a high-resolution camera and colony formation was analysed via Image J.
# [2] = system: BxPc-3; assay: MTT cytotoxicity of Biotin-Gem and Biotin-Gem-RB in BxPC-3 cells; assay type: cell-based, human; details: 48 h incubation
# Description: To ensure the antimetabolite efficacy of Biotin-Gem and Biotin-Gem-RB were unaffected by chemical modification, the cytotoxicity of the conjugates was determined in the human pancreatic adenocarcinoma cell line BxPc-3. […] These cells were seeded into 96 well plates at a density of 5000 cells per well. The plates were then incubated for 24 hours followed by the addition of 100 uL of media spiked with either Gem, Biotin-Gem or Biotin-Gem-RB. The concentrations used for Biotin-Gem were […] while for Biotin-Gem-RB, concentrations of 0.01 μM, 0.05 μM, 0.1 μM, 0.5 μM, 1 μM, 5 μM and 10 μM were investigated. Corresponding concentrations of Gem were used in each case. The cells were then further incubated for 48 hours before cell viability was determined using an MTT assay.
# [3] = Body weight of Mia-PaCa-2 tumour bearing mice (FIG. 11b); assay type: in vivo, SCID mice; details: clinical dose 120 mg/Kg I.P., day 6
# Description: The microbubble suspension (6.86×10^7±1.99×10^6 MB) was delivered as a 100 uL I.V injection (PTX—2.44±0.37 mg/Kg, GEM—0.5±0.04 mg/Kg, RB—1.85±0.14 mg/Kg). Gemcitabine hydrochloride was dissolved in sterile PBS and administered as a 100 uL I.P injection (120 mg/Kg). Ultrasound treatment was delivered for 3.5 minutes at frequency of 1 MHz, an ultrasound power density of 3.5 W/cm^2 and a duty cycle of 30% immediately after injection and 30 minutes following. Error bars represent±the standard error.
# Mia-Paca-2 cells were maintained in DMEM medium and BxPc-3 cells were maintained in RPMI 1640 both supplemented with 100 U/mL penicillin, […] streptomycin, and 10% fetal bovine serum (FBS) in a humidified 5% CO2 atmosphere at 37° C. Cells (5×10^6) were re-suspended in Matrigel® and implanted subcutaneously into the rear dorsum of SCID (C.B-17/IcrHan®Hsd-Prkdcscid) mice. Tumours reached treatable size within 3 weeks. Tumour measurements were taken daily using callipers. Once the tumours had reached an average volume of 150 mm^3 animals were randomly assigned into treatment groups. Animals were anaesthetised by intraperitoneal injection of hypnorm:hypnovel:ice cold sterile water for injection (1:2:1). […] Tumour growth was monitored daily throughout the course of the treatment.
# [4] = system: Mia-PaCa-2; assay: MTT assay biotin-GEM-RB vs gemcitabine hydrochloride, Mia-PaCa-2; assay type: cell-based, human; details: Mia-PaCa-2, 0-1000 μM, 48 h
# Description: (§1) Human primary pancreatic adenocarcinoma cell lines BxPc-3, Panc-1 and Mia-PaCa-2 were maintained in RPMI 1640 medium which was supplemented with 100 U/mL penicillin, […] streptomycin, and 10% fetal bovine serum (FBS) and Dulbecco's Modified Eagle's Medium (DMEM) containing 1 g/L glucose and supplemented with 100 U/mL penicillin, […] streptomycin, and 10% fetal bovine serum (FBS) respectively in a humidified 5% CO2 atmosphere at 37° C. These cells were seeded into 96 well plates at a density of 5000 cells per well. The plates were then incubated for 24 hours followed by the addition of 100 μL of media spiked with Gem or Biotin-Gem-RB at concentrations ranging from 0.001-1000 μM. The cells were then further incubated for 48 hours before cell viability was determined by an MTT assay.
# [5] = system: BxPc-3; assay: MTT assay biotin-GEM-RB vs gemcitabine hydrochloride, BxPc-3; assay type: cell-based, human; details: BxPc-3, 0-1000 μM, 48 h
# Description: as §1
# [6] = system: Panc-1; assay: MTT assay biotin-GEM-RB vs gemcitabine hydrochloride, Panc-1; assay type: cell-based, human
# Description: as §1
compound,measurement,setting,value
"O=C1OC2(c3cc(I)c(O)c(I)c3Oc3c2cc(I)c(O)c3I)c2c(Cl)c(Cl)c(Cl)c(Cl)c21 [RB, Rose Bengal]",reduction of colony number compared to untreated cells,[1],18.8%
"CC(=O)O[C@H]1C(=O)[C@@]2(C)[C@H]([C@H](OC(=O)c3ccccc3)[C@]3(O)C[C@H](OC(=O)[C@H](O)[C@@H](NC(=O)c4ccccc4)c4ccccc4)C(C)=C1C3(C)C)[C@]1(OC(C)=O)CO[C@@H]1C[C@@H]2O [PTX, paclitaxel]",reduction of colony number compared to untreated cells,[1],7.3%
"Nc1ccn([C@@H]2O[C@H](COC(=O)OCCNC(=O)CCCCC3SCC4NC(=O)NC43)[C@@H](O)C2(F)F)c(=O)n1 (stereo partly drawn) [Biotin-Gem, (2R,3R,5R)-5-(4-amino-2-oxopyrimidin-1(2H)-yl)-4,4-difluoro-3 hydroxytetrahydrofuran-2-yl)methyl (2-(5-(2-oxohexahydro-1H-thieno[3,4-d]imidazol-4-yl)pentanamido)ethyl) carbonate]","efficacy (cell viability, MTT) compared to Gemcitabine",[2]; 0-100 μM,no statistically significant difference in efficacy
Nc1ccn([C@@H]2O[C@H](CO)[C@@H](O)C2(F)F)c(=O)n1 [gemcitabine],decrease in body weight,[3],12%
"COc1cccc2c1C(=O)c1c(O)c3c(c(O)c1C2=O)C[C@@](O)(C(=O)CO)C[C@@H]3O[C@H]1C[C@H](N)[C@H](O)[C@H](C)O1 [Dox, doxorubicin]",reduction of colony number compared to untreated cells,[1],29.3%
"Nc1ccn([C@@H]2O[C@H](COC(=O)CCCCCCC(=O)NCCN(CCNC(=O)CCCCCCC(=O)NCCOC(=O)c3c(Cl)c(Cl)c(Cl)c(Cl)c3-c3c4cc(I)c(=O)c(I)c-4oc4c(I)c(O)c(I)cc34)CCNC(=O)CCCCC3SCC4NC(=O)NC43)[C@@H](O)C2(F)F)c(=O)n1 (stereo partly drawn) [Biotin-Gem-RB, ((2R,3R, 5R)-5-(4-amino-2-oxopyrimidin-1 (2H)-yl)-4,4-difluoro-3-hydroxytetrahydrofuran-2-yl)methyl 4,11,19-trioxo-15-(2-(5-(2-oxohexahydro-1H-thieno[3,4-d]imidazol-4-yl)pentanamido)ethyl)-1-((2,3,4,5-tetrachloro-6-(6-hydroxy-2,4,5,7-tetraiodo-3-oxo-3H-xanthen-9-yl)benzoyl)oxy)-3,12,15,18-tetraazahexacosan-26-oate]",efficacy vs gemcitabine HCl (MTT),[4],no decrease in efficacy
same,efficacy vs gemcitabine HCl (MTT),[5],no decrease in efficacy
same,efficacy vs gemcitabine HCl (MTT),"[6]; Panc-1, 0-1000 μM, 48 h",no decrease in efficacy
same,efficacy vs gemcitabine HCl (MTT),"[6]; Panc-1, above 10 μM",significant increase in efficacy
same,"efficacy (cell viability, MTT) compared to Gemcitabine",[2]; 0.01-10 μM,no statistically significant difference in efficacy
